Paper PMC13198257, “An aerosolized dual-action autotaxin inhibitor-PPARγ agonist for the treatment of pulmonary fibrosis” (Cell Reports Medicine, 2026)
Entries after “also recorded” stand apart in the source; their conditions may differ.

Key:
ATX [1] = molecular target: T1, ATX (Homo sapiens, UniProt Q13822); test: Amplex Red assay: ATX inhibitory activity in vitro; format: biochemical; details: for IC50: Amplex Red assay; for IC50 / Inhibition of ATX enzymatic activity: in vitro; for % inhibition of ATX: at 100 μΜ, Table S1; for ATX activity, fold lower than that of TGZ: ratio of IC50
T1 construct: purchased Sino Biological 11308-H07H
Description: (§1) ATX inhibitory activity in vitro of examined compounds was assessed with the Amplex Red assay,[32]^,[35]^,[36] as recently published in detail.[37] The assay was done in Amplex Red Assay buffer (Tris 50 mM, CaCl2 5 mM, pH 8). Briefly, 50 μL of increasing concentrations of each compound were placed in separate wells of a black 96-well plate. […] 50 μL of the LPC-containing assay buffer (200 μM) were added to the wells and incubated for 30 min at 37°C to allow the enzyme to initially interact with its substrate. 50 μL of the detection mix (Amplex Red 200 μM, choline oxidase 0.4 U/mL, horseradish peroxidase 4 U/mL) were added to the plate wells. Fluorescence was measured in a Tecan M200 Fluorimeter using excitation at 530 nm and reading at 590 nm, every 5 min for 30 min. The velocity of the reaction and the remaining ATX activity were calculated at the linear phase of the reaction. Dose-response inhibition graphs were plotted with GraphPad Software.

[2] = tested on: choline oxidase and horseradish peroxidase; test: Interference with the 2nd and 3rd reaction of the Amplex Red assay; format: biochemical
Description: as §1
Figure S3. Kinetic analysis of ATX inhibition. Related to Figures 3 and 4
(B) Kinetics for the second (oxidation of choline catalysed by choline oxidase) and third reaction (the conversion of the
Amplex substrate to the fluorescent resorufin catalysed by horseradish peroxidase, HRP) of the Amplex Red Lyso-
phospholipase D assay for representative compounds (TGZ, 4, 5 and EL244). The first reaction includes the conversion of
LPC to LPA catalysed by ATX.
Kinetic graphs are indicative of three technical replicates. […]

PPARγ = molecular target: T2, PPARγ (Homo sapiens, UniProt P37231); test: PPARγ Gal4 hybrid reporter gene assay; format: cell-based; details: Gal4-hybrid reporter, HEK293T cells
T2 construct: expressed in transfected cells; host or cells: HEK293T
T2 sequence (P37231 238-503 limits assumed): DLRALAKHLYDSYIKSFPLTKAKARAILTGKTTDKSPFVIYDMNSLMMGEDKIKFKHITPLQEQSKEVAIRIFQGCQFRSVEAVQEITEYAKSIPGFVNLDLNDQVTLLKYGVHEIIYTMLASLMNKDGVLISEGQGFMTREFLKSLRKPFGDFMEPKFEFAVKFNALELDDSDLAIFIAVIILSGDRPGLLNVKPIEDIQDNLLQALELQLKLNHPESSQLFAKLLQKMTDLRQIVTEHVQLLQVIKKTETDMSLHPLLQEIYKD
Description: All well-established assays were performed following straightforward methodology.[49] Plasmids pFA-CMV-hPPARα-LBD, pFA-CMV-hPPARγ-LBD and pFA-CMV-hPPARδ-LBD code for the hinge region and ligand binding domain of the canonical isoform of the respective nuclear receptor and were used to express the Gal4 hybrid receptors. pFR-Luc (Stratagene, La Jolla, CA, USA) and pRL-SV40 (Promega, Madison, WI, USA) were used as Gal4-responsive reporter and as internal control in the hybrid reporter gene assays, respectively. HEK293T cells were seeded in 96-well plates (3×10^4 cells/well). Before transfection, the medium was changed to Opti-MEM without supplements, and transient transfection with the plasmids pFR-Luc, pRL-SV40, and one pFA-CMV-NR-LBD clone was carried out using Lipofectamine LTX reagent (Invitrogen, Carlsbad, CA, USA) according to the manufacturer’s protocol. […] Normalisation of transfection efficiency and cell growth was performed by dividing firefly luminescence by Renilla luminescence and multiplying the result by 1000, yielding relative light units (RLU). Fold activation was obtained by dividing the mean RLU of the test compound by the mean RLU of the untreated control.

ATX [3] = molecular target: T1, ATX; test: Mode of ATX inhibition, Lineweaver-Burk plots (various LPC concentrations); format: biochemical
Description: To determine the mode of inhibition of ATX, various concentrations of TGZ, compound 5 and EL244 were tested against various LPC concentrations. Specifically, TGZ was tested against 6.25, 12.5, 25, 50 and 100 μM LPC, compound 5 was tested against 3.125, 6.25, 12.5, 25, 50 and 100 μM LPC, while EL244 was tested against 25, 50, 100 and 150 μM LPC. Lineweaver–Burk graphs depicting the reciprocal of velocity (1/V) against the reciprocal of substrate concentration (1/S) were plotted with GraphPad Software.

[4] = Cytotoxicity in HepG2 hepatocytes; format: cell-based; details: human, HepG2 cells
[5] = AMP membrane permeability; format: in vitro ADME; details: 10 μΜ
hERG = hERG (Homo sapiens, UniProt Q12809); test: hERG inhibition; format: biochemical
in vitro = details: mouse
[6] = Mouse metabolic clearance and half-life in vitro

hERG, sequence (Q12809 whole entry): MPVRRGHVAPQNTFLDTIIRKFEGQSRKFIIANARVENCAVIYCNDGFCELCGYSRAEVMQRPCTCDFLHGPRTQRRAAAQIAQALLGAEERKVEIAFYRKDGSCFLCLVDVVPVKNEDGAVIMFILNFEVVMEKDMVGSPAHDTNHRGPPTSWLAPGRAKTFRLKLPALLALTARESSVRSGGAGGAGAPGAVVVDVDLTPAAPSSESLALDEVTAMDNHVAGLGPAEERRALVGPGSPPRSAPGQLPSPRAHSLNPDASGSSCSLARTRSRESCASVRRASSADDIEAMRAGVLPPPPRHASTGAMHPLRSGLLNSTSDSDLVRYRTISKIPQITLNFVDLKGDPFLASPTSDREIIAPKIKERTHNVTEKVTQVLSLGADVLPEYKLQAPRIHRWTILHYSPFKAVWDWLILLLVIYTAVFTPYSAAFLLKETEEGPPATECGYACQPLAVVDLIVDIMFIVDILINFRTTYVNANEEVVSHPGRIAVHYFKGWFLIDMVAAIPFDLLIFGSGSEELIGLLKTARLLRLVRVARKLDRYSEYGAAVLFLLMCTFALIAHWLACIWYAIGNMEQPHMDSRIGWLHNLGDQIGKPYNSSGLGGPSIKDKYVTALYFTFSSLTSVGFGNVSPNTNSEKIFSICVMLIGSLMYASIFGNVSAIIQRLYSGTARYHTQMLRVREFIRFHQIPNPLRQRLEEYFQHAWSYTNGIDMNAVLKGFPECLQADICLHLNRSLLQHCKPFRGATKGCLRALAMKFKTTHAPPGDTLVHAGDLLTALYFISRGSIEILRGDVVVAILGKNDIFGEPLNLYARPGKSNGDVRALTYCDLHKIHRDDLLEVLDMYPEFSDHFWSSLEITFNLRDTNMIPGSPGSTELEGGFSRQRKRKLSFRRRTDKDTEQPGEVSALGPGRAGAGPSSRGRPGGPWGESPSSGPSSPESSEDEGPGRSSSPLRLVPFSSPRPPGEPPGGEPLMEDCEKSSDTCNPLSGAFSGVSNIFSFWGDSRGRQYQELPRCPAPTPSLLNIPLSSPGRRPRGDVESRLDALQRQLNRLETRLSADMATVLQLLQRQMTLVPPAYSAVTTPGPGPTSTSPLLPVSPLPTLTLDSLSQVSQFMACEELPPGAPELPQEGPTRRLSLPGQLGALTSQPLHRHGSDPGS

Q: For CCc1ccc(CCOc2ccc(CC3SC(=O)NC3=O)cc2)nc1 (stereo not drawn) [PGZ, pioglitazone, reference compound], which IC50 (ATX [1]) is on record?
A: The IC50 was > 100000 nM.

Q: And the “Inhibition of ATX enzymatic activity” value (ATX [1])?
A: Its value is “not to inhibit ATX enzymatic activity”.

Q: What does the source list for N#Cc1sc(NCCOc2ccc(CC3SC(=O)NC3=O)cc2)nc1-c1ccc(F)cc1 (stereo not drawn) [Compound 4, 2-((2-(4-((2,4-dioxothiazolidin-5-yl)methyl)phenoxy)ethyl)amino)-4-(4-fluorophenyl)thiazole-5-carbonitrile]?
A: IC50 (ATX [1]): 940 nM; Interference on the 2nd and 3rd steps of the Amplex Red assay [2]: Minimal interference; also recorded: not involved at all in the second and third reaction; EC50 (PPARγ): 1000 nM; PPARγ fold activ. (max. activation) (PPARγ): 5.6 ± 0.5 fold

Q: Which results are given for Cc1c(C)c2c(c(C)c1O)CCC(C)(COc1ccc(CC3SC(=O)NC3=O)cc1)O2 (stereo not drawn) [TGZ, troglitazone, reference compound]?
A: IC50 (ATX [1]): 530 nM; % inhibition of ATX (ATX [1]): fully inhibited ATX activity; % inhibition of ATX (ATX [1]; listed as 1467): 99.17%; Mode of ATX inhibition (ATX [3]): non-competitive; CC50 [4]: 34000 nM

Q: For CN(CCOc1ccc(CC2SC(=O)NC2=O)cc1)c1ccccn1 (stereo not drawn) [RGZ, rosiglitazone, reference compound], which IC50 (ATX [1]) is on record?
A: Its IC50 is > 100000 nM.

Q: What about the “Inhibition of ATX enzymatic activity” value (ATX [1]) of the same compound?
A: Its value is “not to inhibit ATX enzymatic activity”.

Q: For N#Cc1sc(NCCOc2ccc(/C=C3/SC(=O)NC3=O)cc2)nc1-c1ccc(F)cc1 [Compound 1, (E)-2-((2-(4-((2,4-dioxothiazolidin-5-ylidene)methyl)phenoxy)ethyl)amino)-4-(4-fluorophenyl)thiazole-5-carbonitrile], which IC50 (ATX [1]) is on record?
A: Its IC50 is 2000 nM.

Q: What about the “ATX activity, fold lower than that of TGZ” value (ATX [1]) of the same compound?
A: The value was 4 fold.

Q: With COC(=O)c1ccc2c(c1)NC(=O)/C2=C(\Nc1ccc(N(C)C(=O)CN2CCN(C)CC2)cc1)c1ccccc1 [Nintedanib, reference compound] as the compound, how does the AMP [5] read?
A: The AMP was 7.8e-07 cm/s.

Q: What about the CC50 [4] of the same compound?
A: The CC50 was 4000 nM.

Q: And the IC50 (hERG)?
A: Its IC50 is 4000 nM.

Q: And the half-life at 0.1 μM (in vitro)?
A: The half-life at 0.1 μM was 58 min.

Q: And the microsomal CLint at 0.1 μM [6]?
A: Its microsomal CLint at 0.1 μM is 122 µL/min/mg.

Q: For COc1cc(-c2ccc(N=Nc3ccc4c(S(=O)(=O)O)cc(S(=O)(=O)O)c(N)c4c3O)c(OC)c2)ccc1N=Nc1ccc2c(S(=O)(=O)O)cc(S(=O)(=O)O)c(N)c2c1O [CSB, Chicago Sky Blue 6B, reference compound], which IC50 (ATX [1]) is on record?
A: The IC50 was 1600 nM.

Q: And the “% inhibition of ATX” value (ATX [1])?
A: Its value is “fully inhibited ATX activity”.

Q: And the “% inhibition of ATX” value (ATX [1]; listed as 425)?
A: Its value is 99.21%.

Q: For O=C1NC(=O)/C(=C\c2ccc(OCCN3CCN(C(=O)OCc4cc(Cl)cc(Cl)c4)CC3)cc2)S1 [Compound 2, 3,5-Dichlorobenzyl (E)-4-(2-(4-((2,4-dioxothiazolidin-5-ylidene)methyl)phenoxy)ethyl)piperazine-1-carboxylate], which IC50 (ATX [1]) is on record?
A: The IC50 was 2000 nM.

Q: And the “ATX activity, fold lower than that of TGZ” value (ATX [1])?
A: Its value is 4 fold.

Q: Which IC50 (ATX [1]) does the source give for Cc1c(C)c2c(c(C)c1O)CCC(C)(COc1ccc(/C=C3/SC(=O)N(Cc4ccc(F)cc4)C3=O)cc1)O2 (stereo not drawn) [Compound 3, (E)-3-(4-fluorobenzyl)-5-(4-((6-hydroxy-2,5,7,8-tetramethylchroman-2-yl)methoxy)benzylidene)thiazolidine-2,4-dione] here?
A: The IC50 was 17800 nM.

Q: Which CC50 [4] does the source give for O=C(CCN1CCN(C(=O)OCc2cc(Cl)cc(Cl)c2)CC1)c1ccc2[nH]c(=O)oc2c1 [PF-8380, reference compound] here?
A: The CC50 was > 100000 nM.

Q: And the IC50 (hERG)?
A: The IC50 was 500 nM.

Q: And the half-life at 0.1 μM [6]?
A: The half-life at 0.1 μM was < 10 min.

Q: And the microsomal CLint at 0.1 μM [6]?
A: Its microsomal CLint at 0.1 μM is 766 µL/min/mg.
